Assay results reported in ChEMBL document CHEMBL2311443, “Exploring amino acids derivatives as potent, selective, and direct agonists of sphingosine-1-phosphate receptor subtype-1” (Bioorg Med Chem Lett, 2013).

Assays:
[1] = target: T1, Sphingosine 1-phosphate receptor 1 (Homo sapiens, UniProt P21453); experiment: Agonist activity at human S1P1 receptor expressed in HEK293T cells assessed as stimulation of [35S]GTPgammaS binding; format: functional, cell-based, HEK-293T
Homo sapiens [2] = species on record: Homo sapiens; experiment: Selectivity index, ratio of EC50 for human S1P3 to EC50 for human S1P1
[3] = target: T2, Sphingosine 1-phosphate receptor 3 (Homo sapiens, UniProt Q99500); experiment: Displacement of [33P]S1P from human S1P3 receptor expressed in HEK293T cells after 1 hr by liquid scintillation counting analysis; format: cell-based, HEK-293T
T2 sequence (Q99500 whole entry): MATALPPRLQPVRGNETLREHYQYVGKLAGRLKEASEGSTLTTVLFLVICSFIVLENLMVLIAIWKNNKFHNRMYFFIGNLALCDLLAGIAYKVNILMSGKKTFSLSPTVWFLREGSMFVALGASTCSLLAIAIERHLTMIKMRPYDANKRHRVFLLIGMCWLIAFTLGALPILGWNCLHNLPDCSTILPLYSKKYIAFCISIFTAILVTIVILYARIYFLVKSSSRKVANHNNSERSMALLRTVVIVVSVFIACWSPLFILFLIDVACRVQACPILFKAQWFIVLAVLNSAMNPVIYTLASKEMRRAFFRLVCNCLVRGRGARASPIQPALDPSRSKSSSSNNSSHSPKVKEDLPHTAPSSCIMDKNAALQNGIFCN

[4] = target: T2, Sphingosine 1-phosphate receptor 3; experiment: Agonist activity at human S1P3 receptor expressed in HEK293T cells assessed as stimulation of [35S]GTPgammaS binding; format: functional, cell-based, HEK-293T
[5] = target: T1, Sphingosine 1-phosphate receptor 1; experiment: Displacement of [33P]S1P from human S1P1 receptor expressed in HEK293T cells after 1 hr by liquid scintillation counting analysis; format: cell-based, HEK-293T
Mus musculus [6] = experiment: Immunomodulatory activity in C57Bl/6 mouse assessed as induction of lymphopenia at 10 mg/kg, po measured after 6 hrs; format: functional
Homo sapiens [7] = species on record: Homo sapiens; experiment: Selectivity index, ratio of IC50 for human S1P3 to IC50 for human S1P1
Mus musculus [8] = experiment: Immunomodulatory activity in C57Bl/6 mouse assessed as induction of lymphopenia at 1 mg/kg, po measured after 6 hrs; format: functional
Mus musculus [9] = experiment: Immunomodulatory activity in C57Bl/6 mouse assessed as induction of lymphopenia at 20 mg/kg, iv measured after 6 hrs; format: functional

T1 sequence (P21453 whole entry): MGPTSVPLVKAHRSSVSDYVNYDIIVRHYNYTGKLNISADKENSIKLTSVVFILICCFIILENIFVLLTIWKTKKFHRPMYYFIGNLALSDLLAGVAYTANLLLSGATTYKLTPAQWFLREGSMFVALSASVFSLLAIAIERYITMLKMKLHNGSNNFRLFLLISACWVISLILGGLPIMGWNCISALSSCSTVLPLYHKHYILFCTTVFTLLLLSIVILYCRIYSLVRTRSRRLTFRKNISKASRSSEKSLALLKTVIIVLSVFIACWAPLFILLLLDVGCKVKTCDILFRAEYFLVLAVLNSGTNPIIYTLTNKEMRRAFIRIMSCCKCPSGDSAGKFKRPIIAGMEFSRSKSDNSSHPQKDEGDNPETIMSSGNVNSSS

SMILES: N[C@@H](CC(=O)O)c1nc(-c2ccc(OCc3ccc(-c4ccccc4)cc3)c(C(F)(F)F)c2)c[nH]1
- EC50 [1]: 161 nM
- Ratio EC50 (Homo sapiens [2]): > 18.6
- IC50 [3]: > 10000 nM
- EC50 [4]: > 3000 nM
- IC50 [5]: 17 nM

SMILES: CCCCCCCCOc1ccc(NC(=O)[C@@](C)(N)/C=C/C(=O)O)cc1
- IC50 [3]: 10000 nM
- Activity (Mus musculus [6]): 25%
- IC50 [5]: 74 nM

SMILES: CCCCCCCCc1ccc(NC(=O)[C@@](C)(N)CC(=O)O)cc1C(F)(F)F
- IC50 [3]: > 10000 nM
- IC50 [5]: 370 nM

SMILES: O=C(O)CCc1nc(-c2ccc(OCc3ccc(-c4ccccc4)cc3)c(C(F)(F)F)c2)c[nH]1
- IC50 [3]: > 10000 nM
- IC50 [5]: 3000 nM

SMILES: CCCCCCCCOc1ccc(NC(=O)[C@@H](N)CCC(=O)O)cc1
- IC50 [3]: 10000 nM
- Activity (Mus musculus [6]): 44%
- IC50 [5]: 92 nM

SMILES: CCCCCCCCOc1ccc(NC(=O)[C@@H](N)CC(=O)O)cc1
- EC50 [1]: 164 nM
- Ratio IC50 (Homo sapiens [7]): 73
- Ratio EC50 (Homo sapiens [2]): 11
- IC50 [3]: 1050 nM
- EC50 [4]: 1800 nM
- Activity (Mus musculus [6]): 57%
- IC50 [5]: 14.4 nM

SMILES: CCCCCCCCc1ccc(CCC(N)(CO)CO)cc1 [FINGOLIMOD]
- Activity (Mus musculus [8]): 80%

SMILES: CCCCCCCCOc1ccc(NC(=O)[C@@H](N)CC(=O)O)cc1C(F)(F)F
- EC50 [1]: 231 nM
- Ratio EC50 (Homo sapiens [2]): > 13
- Activity (Mus musculus [9]): 60%
- IC50 [3]: > 10000 nM
- EC50 [4]: > 3000 nM
- Activity (Mus musculus [6]): 33%
- IC50 [5]: 53 nM

SMILES: CCCCCCCCOc1ccc(NC(=O)[C@@](C)(N)CC(=O)O)cc1C(F)(F)F
- EC50 [1]: 135 nM
- Ratio EC50 (Homo sapiens [2]): > 22
- IC50 [3]: > 10000 nM
- EC50 [4]: > 3000 nM
- Activity (Mus musculus [6]): 24%
- IC50 [5]: 95 nM

SMILES: C[C@](N)(CC(=O)O)c1nc(-c2ccc(OCc3ccc(-c4ccccc4)cc3)c(C(F)(F)F)c2)c[nH]1
- EC50 [1]: 700 nM
- Ratio EC50 (Homo sapiens [2]): > 4
- IC50 [3]: > 10000 nM
- EC50 [4]: > 3000 nM
- IC50 [5]: 82 nM

SMILES: CCCCCCCCOc1ccc(NC(=O)[C@@](C)(N)CCC(=O)O)cc1
- IC50 [3]: 10000 nM
- IC50 [5]: 77 nM
